# Experimental data reported in US7659078B1, “Method and kit for determination of prostacyclin in plasma” (University of Kentucky Research Foundation, priority 2002, dated 2010).
# B1: 1:500 conjugate: NHS ester of 6-keto-PGF1α conjugated to cysteine-free mutant aequorin at 1:500 mole ratio aequorin:6-keto-PGF1α (conjugate)
# chain: VKLTPDFDNPKWIGRHKHMFNFLDVNHNGRISLDEMVYKASDIVINNLGATPEQAKRHKDAVEAFFGGAGMKYGVETEWPEYIEGWKRLASEELKRYSKNQITLIRLWGDALFDIIDKDQNGAISLDEWKAYTKSDGIIQSSEDSEETFRVSDIDESGQLDVDEMTRQHLGFWYTMDPASEKLYGGAVP
# Tested on: anti-6-keto-PGF1α antibody
# Assay: Binder dilution study of 6-keto-PGF1α-aequorin conjugates
# Type: binding, sheep
# Details: 1×10^−10 M conjugate, 2 h room temperature, secondary antibody-coated plate; compared with 1:50 and 1:200 conjugates
# Method: For the binder dilution studies aliquots of 100 μL of different concentrations of serially diluted anti-6-keto-PGF1α antibody, produced in sheep and 50 μL of 1×10^−10 M 6-keto-PGF1α-aequorin conjugate were placed simultaneously in microtiter plates pre-coated with a secondary antibody, donkey anti-sheep IgG. All dilutions were done in the assay buffer. The plates were incubated in dark at room temperature for 2 h with shaking at 300 rpm. Then the plates were washed with wash buffer (30 mM Tris-HCL buffer, pH 7.0, containing 2 mM EDTA, 0.15 M NaCl, and 0.1% Tween 20) three times to remove any unbound primary antibody or any unbound conjugate. Finally, the light intensity was measured as described earlier for the calibration plot.
# The next step was to study the interaction between the anti-6-keto-PGF1α antibody and the conjugates. […] After washing the plate to remove any unbound antibody or conjugate the luminescence was measured. […] The effect of increased or decreased amounts of 6-keto-PGF1α antibody and/or conjugate on the dose-response curve was also evaluated. […] The dose-response curve obtained for 6-keto-PGF1α as depicted in FIG. 3, is sigmoidal in shape, with the luminescence intensity being lower at high concentrations of 6-keto-PGF1α and increasing as the concentration of 6-keto-PGF1α decreases. […]
row,Molecule,binding to 6-keto-PGF1α antibody (binder-dilution curves)
1,B1,maximum binding

# Tested on: not listed separately
# Assay: 6-keto-PGF1α in plasma of PPH patients on intravenous prostacyclin, measured directly without extraction
# Type: in vivo, human
# Details: PPH patient plasma samples
# Method: The analysis of 6-keto-PGF1α directly in plasma without extraction was performed by diluting the samples 1:200 times and using 50 μL in the dose-response curve along with 100 μL 6-keto-PGF1α of antibody and 50 μL of 6-keto-PGF1α-aequorin conjugate. The analysis was performed in the same manner as the dose-response curve described before. The amount of 6-keto-PGF1α in the samples was calculated from the standard dose response curve generated in plasma. The appropriate dilution factor was taken into consideration when calculating the amount of 6-keto-PGF1α present in each sample.
# For in vivo analysis plasma samples were obtained from five patients with severe pulmonary arterial hypertension and 7 normal controls. […] All patient samples were analyzed in the same manner as the dose response curve in plasma. […] The amount of 6-keto-PGF1α in the samples was calculated as described before for sample analysis without extraction. […]
# In order to obtain recovery data further analysis of the samples was performed. Two of the normal plasma samples and two patient plasma samples were first analyzed using the assay without extraction. […] The amount of 6-keto-PGF1α in the samples was calculated as described before for sample analysis without extraction. The samples were analyzed in triplicates. […]
row,Molecule,levels of 6-keto-PGF1α in plasma versus prostacyclin dose
1,CCCCC[C@H](O)/C=C/[C@@H]1[C@H]2C/C(=C/CCCC(=O)O)O[C@H]2C[C@H]1O [Prostacyclin],increased with increase in the prostacyclin dose

# Tested on: anti-6-keto-PGF1α antibody
# Assay: Cross-reactivity of related prostaglandins in the 6-keto-PGF1α aequorin bioluminescent immunoassay
# Type: binding, sheep
# Details: calculated at 50% B/B0; cross reactant used in the dose response curve instead of 6-keto-PGF1α; assay buffer
# Method: Dose-Response Curve: A dose-response curve was generated for 6-keto-PGF1α by simultaneously incubating 100 μL of 6-keto-PGF1α antibody (1:10,000 dilution), 50 μL of different concentrations of the serially diluted analyte, 6-keto-PGF1α, and 50 μL of 1×10^−10 M coelenterazine bound 6-keto-PGF1α-aequorin conjugate (1:500) on microtiter plates coated with the secondary antibody. The plate was incubated in dark at room temperature for two hours with shaking at 300 rpm. The plate was washed three times with the wash buffer to remove any unbound components. The light intensity was measured as described before.
# Presence of various prostaglandins other than 6-keto-PGF1α in the blood can cause non-specific binding with the 6-keto-PGF1α antibody and interfere with the detection of 6-keto-PGF1α, giving extremely high values of 6-keto-PGF1α. Therefore, it becomes important to confirm that the amount of 6-keto-PGF1α obtained from our assay is only due to 6-keto-PGF1α and no other prostaglandin. The cross-reactivities of other prostaglandins similar in structure to 6-keto-PGF1α were determined by preparing standard solutions of the compounds in the assay buffer ranging from 100,000 to 100 pg/mL and using them in this assay for 6-keto-PGF1α. The measured 6-keto-PGF1α concentration at 50% B/B0 was then calculated. The percent cross-reactivities were calculated by comparison of measured cross-reactant concentration and the actual concentration (known amount) of the cross-reactant in the sample (Table 1). It must be noted that the prostaglandins occur at different times in the arachidonic acid pathway and in different concentrations. […] The assay can, therefore, be used to measure 6-keto-PGF1α directly from plasma.
# Cross-reactivities of related prostaglandins were measured by using varying concentrations of 50 μL of the cross reactant in the dose response curve instead of 6-keto-PGF1α. The percent cross-reactivities were calculated at 50% B/B0.
row,Molecule,Percent cross-reactivity
1,CCCCC[C@H](O)/C=C/[C@@H]1[C@@H](C/C=C\CCCC(=O)O)[C@@H](O)C[C@H]1O [Prostaglandin F2],3.41%
2,"CCCCCC(=O)CCC1C(O)CC(O)C1CC(=O)CCCCC(=O)O (stereo not shown) [6,15-diketo-13,14-dihydro-Prostaglandin F1]",1.83%
3,"CCCCC[C@H](O)/C=C/[C@@H]1[C@@H](CC(=O)CCC(=O)O)[C@@H](O)C[C@H]1O [2,3-dinor-6-keto-Prostaglandin F1, 2,3-dinor-6-keto-Prostaglandin F1α]",10.1%
4,CCCCC[C@H](O)/C=C/[C@@H]1[C@@H](CCCCCCC(=O)O)[C@@H](O)C[C@H]1O [Prostaglandin F1],5.4%
5,CCCCC[C@H](O)/C=C/[C@H]1C(=O)C[C@H](O)[C@@H]1C/C=C\CCCC(=O)O [Prostaglandin D2],7.75%
6,"CCCCCC(=O)CCC1C(O)CC(O)C1CCCCCCC(=O)O (stereo not shown) [13,14-dihydroxy-15-keto-Prostaglandin F1]",0.45%
7,"CCCCC[C@H](O)/C=C/[C@@H]1[C@@H](CC(=O)CCCCC(=O)O)[C@@H](O)C[C@H]1O [6-keto-Prostaglandin F1, 6-keto-Prostaglandin F1α]",100%
8,CCCCC[C@H](O)/C=C/[C@H]1[C@H](O)CC(=O)[C@@H]1CCCCCCC(=O)O [Prostaglandin E1],6.75%
